# Measured values as given in US20020026053A1, “Novel 3-(substituted) -2- indolinones compounds and use thereof as inhibitors of protein kinase activity” (priority 1997, published 2002).
# Test system: FLK-1 receptor
# Assay: FLK-1 Assay (cellular/catalytic ELISA, VEGF-stimulated phosphotyrosine)
# Type: cell-based
# Parameters: concentration or dose not given beside the values
# Conditions: protocol P.110
# Outline: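 Receptor phosphotyrosine ELISA: Flk-1-expressing NIH3T3 C7#3 cells, starved overnight in 0.1% FBS medium, received compound (1:200 final dilution, 0.5% DMSO) for 2 h at 37 °C, then VEGF. Anti-FLK-1-captured receptor was probed with anti-phosphotyrosine UB40 and peroxidase/ABTS read-out, relative to cells without compound.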
row,Structure (SMILES),Flk Kinase % Inhibition (P.110)
1,O=C1Nc2ccc(S(=O)(=O)N3CCOCC3)cc2C1=Cc1cccc(Oc2ccc(Cl)c(Cl)c2)c1 [10738/F03],9.0%
2,COc1ccc(C=C2C(=O)Nc3ccc(S(=O)(=O)N4CCOCC4)cc32)cc1O [10738/F04],−32.3%
3,O=C1Nc2ccc(S(=O)(=O)N3CCOCC3)cc2C1=Cc1cc(O)ccc1[N+](=O)[O-] [10738/F05],3.3%
4,O=C1Nc2ccc(S(=O)(=O)N3CCOCC3)cc2C1=Cc1cccc(O)c1O [10738/F06],−12.6%
5,O=C1Nc2ccc(S(=O)(=O)N3CCOCC3)cc2C1=Cc1cc(O)cc(O)c1 [10738/F07],6.4%
6,O=C1Nc2ccc(S(=O)(=O)N3CCOCC3)cc2C1=Cc1ccc(Cl)c(Cl)c1 [10738/F08],16.8%
7,COc1ccccc1C=C1C(=O)Nc2ccc(S(=O)(=O)N3CCOCC3)cc21 [10738/F09],1.7%
8,CC(C)c1ccc(C=C2C(=O)Nc3ccc(S(=O)(=O)N4CCOCC4)cc32)cc1 [10738/F10],9.5%
9,CCCOc1ccc(C=C2C(=O)Nc3ccc(S(=O)(=O)N4CCOCC4)cc32)cc1 [10738/F11],15.8%
10,Cc1ccc(Oc2cccc(C=C3C(=O)Nc4ccc(CCCl)cc43)c2)cc1 [10738/G02],−10.5%
11,O=C1Nc2ccc(CCCl)cc2C1=Cc1cccc(Oc2ccc(Cl)c(Cl)c2)c1 [10738/G03],−4.1%
12,COc1ccc(C=C2C(=O)Nc3ccc(CCCl)cc32)cc1O [10738/G04],−57.2%
13,O=C1Nc2ccc(CCCl)cc2C1=Cc1cc(O)ccc1[N+](=O)[O-] [10738/G05],4.0%
14,O=C1Nc2ccc(CCCl)cc2C1=Cc1cccc(O)c1O [10738/G06],−52.4%
15,O=C1Nc2ccc(CCCl)cc2C1=Cc1cc(O)cc(O)c1 [10738/G07],−19.3%
16,O=C1Nc2ccc(CCCl)cc2C1=Cc1ccc(Cl)c(Cl)c1 [10738/G08],−15.2%
17,COc1ccccc1C=C1C(=O)Nc2ccc(CCCl)cc21 [10738/G09],4.1%
18,CC(C)c1ccc(C=C2C(=O)Nc3ccc(CCCl)cc32)cc1 [10738/G10],−17.0%
19,CCCOc1ccc(C=C2C(=O)Nc3ccc(CCCl)cc32)cc1 [10738/G11],−8.1%
20,Cc1ccc(Oc2cccc(C=C3C(=O)Nc4c(Br)cc(Br)c(C)c43)c2)cc1 [10738/H02],−14.6%
21,Cc1c(Br)cc(Br)c2c1C(=Cc1cccc(Oc3ccc(Cl)c(Cl)c3)c1)C(=O)N2 [10738/H03],−6.2%
22,COc1ccc(C=C2C(=O)Nc3c(Br)cc(Br)c(C)c32)cc1O [10738/H04],−17.9%
23,Cc1c(Br)cc(Br)c2c1C(=Cc1cc(O)ccc1[N+](=O)[O-])C(=O)N2 [10738/H05],−17.9%
24,Cc1c(Br)cc(Br)c2c1C(=Cc1cccc(O)c1O)C(=O)N2 [10738/H06],−44.8%
